The series in a line: Evaluation of solubilities of photoinitiators in cationic active diluents. Format: physicochemical. The note with it: for Solubility in DOX: diluent DOX: 3,3′-[oxybismethylene]bis[3-ethyl] oxetane; for Solubility in DVE-3: diluent DVE-3: triethyleneglycol divinyl ether; for Solubility in Epoxy resin 6110: diluent Epoxy resin 6110: 3.4-epoxycyclohexylmethyl-3,4-epoxycyclohexyl carboxylate.

Setting [1] is: diluent POX: 3-ethyl-3-(phenoxymethyl) oxetane.

Like-named read-outs stand apart in the source and are kept apart here.

As for `COC(=O)C(=O)c1ccc(Sc2ccc([S+](c3ccc(Sc4ccc(C(=O)C(=O)OC)cc4)cc3)c3ccc(Sc4ccc(C(=O)C(=O)OC)cc4)cc3)cc2)cc1` [Compound 1], the “Solubility in DOX” value is above 10%, the “Solubility in DVE-3” value is recorded as above 10% and the “Solubility in Epoxy resin 6110” value is on record as above 10%. Moreover, under setting [1], the “Solubility in POX” value is given as above 10%.

In the case of `CCOC(=O)C(=O)c1ccc(Oc2ccc([S+](c3ccccc3)c3ccccc3)cc2)cc1` [Compound 2], the “Solubility in DOX” value is listed as above 10%, the “Solubility in DVE-3” value was above 10% and the “Solubility in Epoxy resin 6110” value was above 10%. The “Solubility in POX” value under setting [1] is listed as above 10%.

As to `CCOC(=O)C(=O)c1ccc(Oc2ccc([S+](c3ccc(C)cc3)c3ccc(C)cc3)cc2)cc1` [Compound 7], the “Solubility in DOX” value is above 10%, the “Solubility in DVE-3” value was above 10% and the “Solubility in Epoxy resin 6110” value is reported as above 10%. In addition, the “Solubility in POX” value under setting [1] was above 10%.

For `[F][Sb-]([F])([F])([F])([F])[F].[F][Sb-]([F])([F])([F])([F])[F].c1ccc([S+](c2ccccc2)c2ccc(Sc3ccc([S+](c4ccccc4)c4ccccc4)cc3)cc2)cc1` [UVI6976, bis(4,4′-thioethertriphenylsulfonium) hexafluoroantimonate, reference compound], the “Solubility in POX” value is below 2%, the “Solubility in DOX” value is recorded as below 2%, the “Solubility in DVE-3” value is reported as below 2% and the “Solubility in Epoxy resin 6110” value was below 2%.

On to “phenylthiophenyl diphenylsulfonium hexafluoroantimonate [UVI6992, reference compound]”, for which the “Solubility in DOX” value is below 2%, the “Solubility in DVE-3” value is below 2% and the “Solubility in Epoxy resin 6110” value was below 2%. In addition, under setting [1], the “Solubility in POX” value was below 2%.
